Measurements: the C3SDB collision cross section collection
Several values for one entry are separate records, joined by “and”; a condition that tells them apart may be missing. Equal values may be shown once.

Key:
[1] = [M+Na]+; instrument: DT; stepped-field
[2] = instrument: DT, stepped-field

SMILES	collision cross section (N2) ([2]; [M+K]+)	collision cross section (N2) ([2]; [M+Na]+)	other results
OC[C@H]1O[C@@](CO)(O[C@H]2O[C@H](CO)[C@@H](O)[C@H](O)[C@H]2O)[C@@H](O[C@H]2O[C@H](CO)[C@@H](O)[C@H](O)[C@H]2O)[C@@H]1O [Melezitose]	221.9 Å²	202.7 Å²	collision cross section (N2) [1]: 203.23 Å²; collision cross section (N2) ([2]; [M+Cs]+): 205.8 Å²; collision cross section (N2) ([2]; [M+H]+): 202.6 Å²; collision cross section (N2) ([2]; [M+Li]+): 202.9 Å²; collision cross section (N2) ([2]; [M+Rb]+): 204.1 Å² and 219.2 Å²
CC/C=C\C/C=C\C/C=C\C/C=C\CCCCC(=O)OC[C@H](COP(=O)([O-])OCC[N+](C)(C)C)OC(=O)CCCCCCCCCCCCCCCC [PC(35:4)]	294.5 Å²	–	–
CCCC/C=C\C/C=C\CCCCCCCC(=O)OC[C@H](COP(=O)([O-])OCC[N+](C)(C)C)OC(=O)CCCC/C=C\C/C=C\C/C=C\CCCCC [PC(35:5)]	293.8 Å²	–	–
CCCCC/C=C\C/C=C\C/C=C\C/C=C\CCCCCC(=O)O[C@H](COC(=O)CCCCCCC/C=C\CCCCC)COP(=O)([O-])OCC[N+](C)(C)C [PC(37:5)]	299 Å²	–	–
CC/C=C\C/C=C\C/C=C\C/C=C\C/C=C\C/C=C\CCC(=O)O[C@H](COC(=O)CCCCCCC/C=C\CCCCC)COP(=O)([O-])OCC[N+](C)(C)C [PC(37:7)]	296.6 Å²	–	–
CC/C=C\C/C=C\C/C=C\C/C=C\C/C=C\CCCC(=O)O[C@H](COC(=O)CCCC/C=C\C/C=C\C/C=C\CCCCC)COP(=O)([O-])OCC[N+](C)(C)C [PC(38:8)]	–	299.9 Å²	–
CCCC=CCC=CCC=CCC=CCC=CCC(=O)OC[C@H](COP(=O)(O)OCC[N+](C)(C)C)OC(=O)CC=CCC=CCC=CCC=CCC=CCCC [PC(38:10)]	–	295.9 Å²	–
CC/C=C\C/C=C\C/C=C\C/C=C\C/C=C\CCCCCC(=O)O[C@H](COC(=O)CCCCCCCCCCCCCCCC)COP(=O)([O-])OCC[N+](C)(C)C [PC(39:5)]	304.7 Å²	–	–
CC/C=C\C/C=C\C/C=C\C/C=C\C/C=C\CCCC(=O)OC[C@H](COP(=O)([O-])OCC[N+](C)(C)C)OC(=O)CCC/C=C\C/C=C\C/C=C\C/C=C\C/C=C\CC [PC(40:10)]	–	301.5 Å²	–
CCCCCCC=CCC=CCC(=O)OC[C@H](COP(=O)(O)OCCN)OC(=O)CC=CCC=CCCCCCC [PE(26:4)]	245.4 Å²	–	–
CCCC=CCC=CCC=CCC(=O)OC[C@H](COP(=O)(O)OCCN)OC(=O)CC=CCC=CCC=CCCC [PE(26:6)]	241.7 Å²	–	–
CCCCCCCCCCCCCCCCC(=O)O[C@H](COC(=O)CCCCCCCCCCCCCCC)COP(=O)(O)OCCN [PE(33:0)]	277.2 Å²	–	–
CCCCCCCCCCCCCCCCCCC(=O)O[C@H](COC(=O)CCCCCCCCCCCCCCC)COP(=O)(O)OCCN [PE(35:0)]	286.2 Å²	–	–
CCCC/C=C\CCCCCCCC(=O)OC[C@H](COP(=O)(O)OCCN)OC(=O)CCCCC/C=C\C/C=C\C/C=C\C/C=C\CCCCC [PE(36:5)]	–	278.2 Å²	–
CC/C=C\C/C=C\C/C=C\C/C=C\CCCCC(=O)O[C@H](COC(=O)CCCCCCC/C=C\C/C=C\CCCCC)COP(=O)(O)OCCN [PE(36:6)]	–	276.3 Å²	–
CC/C=C\C/C=C\C/C=C\C/C=C\CCCCC(=O)O[C@H](COC(=O)CCC/C=C\C/C=C\C/C=C\C/C=C\CCCCC)COP(=O)(O)OCCN [PE(38:8)]	–	281.9 Å²	–
CCCCC/C=C\C/C=C\CCCCCCCCCC(=O)OC[C@H](COP(=O)(O)OCCN)OC(=O)CCCCCCCCCCCCCCCCCC [PE(39:2)]	295.9 Å²	–	–
CCCCC/C=C\C/C=C\CCCCCCCCCC(=O)O[C@H](COC(=O)CCCCCCC/C=C\CCCCCCCCC)COP(=O)(O)OCCN [PE(39:3)]	293.4 Å²	–	–
CCCCC/C=C\C/C=C\C/C=C\C/C=C\CCCCCC(=O)O[C@H](COC(=O)CCCCCCCCCCCCCCCC)COP(=O)(O)OCCN [PE(39:4)]	–	292.8 Å²	–
CC/C=C\C/C=C\C/C=C\C/C=C\C/C=C\CCCC(=O)O[C@H](COC(=O)CCCCCCCCC/C=C\C/C=C\CCCCC)COP(=O)(O)OCCN [PE(40:7)]	–	290.8 Å²	–
CC/C=C\C/C=C\C/C=C\C/C=C\CCCCC(=O)O[C@H](COCCCCCCCCCCCCCCCC)COP(=O)(O)OCCN [PE(o34:4)]	–	275.9 Å²	–
CCCCC/C=C\C/C=C\C/C=C\C/C=C\CCCC(=O)O[C@H](COC(=O)CCCCCCCCCCCCCCC)COP(=O)(O)OC[C@H](N)C(=O)O [PS(36:4)]	–	287.8 Å²	–

SMILES	collision cross section (N2) ([2]; [M+K]+)	collision cross section (N2) ([2]; [M+Na]+)	other results
CCCCCCC/C=C\CCCCCCCC(=O)O[C@H](COC(=O)CCCCCCCCC/C=C\CCCCCCCC)COP(=O)(O)OC[C@H](N)C(=O)O [PS(37:2)]	293 Å²	–	–
CC/C=C\C/C=C\C/C=C\C/C=C\C/C=C\C/C=C\CCC(=O)OC[C@H](COP(=O)(O)OC[C@H](N)C(=O)O)OC(=O)CCCCCCC/C=C\CCCCCCC [PS(39:7)]	–	293.1 Å²	–
CC/C=C\C/C=C\C/C=C\C/C=C\C/C=C\C/C=C\CCC(=O)OC[C@H](COP(=O)(O)OC[C@H](N)C(=O)O)OC(=O)CCCCCCC/C=C\CCCCCCCCC [PS(41:7)]	–	299.2 Å²	–
CC/C=C\C/C=C\C/C=C\C/C=C\C/C=C\CCCC(=O)OC[C@H](COP(=O)(O)OC[C@H](N)C(=O)O)OC(=O)CCCCCCCCCCC/C=C\C/C=C\CCCCC [PS(42:7)]	–	304.7 Å²	–
CCC=CCC=CCC=CCC=CCC=CCC=CCC(=O)OC[C@H](COP(=O)(O)OC[C@H](N)C(=O)O)OC(=O)CC=CCC=CCC=CCC=CCC=CCC=CCC [PS(42:12)]	–	293.7 Å²	–
CCCCC/C=C\C/C=C\C/C=C\C/C=C\CCCCCC(=O)O[C@H](COC(=O)CCCCCCCCC/C=C\CCCCCCCCCC)COP(=O)(O)OC[C@H](N)C(=O)O [PS(44:5)]	–	311.5 Å²	–
CC/C=C\C/C=C\C/C=C\C/C=C\C/C=C\C/C=C\CCC(=O)OC[C@H](COP(=O)(O)OC[C@H](N)C(=O)O)OC(=O)CCCCCCCCC/C=C\CCCCCCCCCC [PS(44:7)]	–	311.8 Å²	–
CCCCC/C=C\C/C=C\C/C=C\C/C=C\CCCCCC(=O)OC[C@H](COP(=O)(O)OC[C@H](N)C(=O)O)OC(=O)CCCCC/C=C\C/C=C\C/C=C\C/C=C\CCCCC [PS(44:8)]	–	306.8 Å²	–
CC/C=C\C/C=C\C/C=C\C/C=C\C/C=C\C/C=C\CCC(=O)OC[C@H](COP(=O)(O)OC[C@H](N)C(=O)O)OC(=O)CC/C=C\C/C=C\C/C=C\C/C=C\C/C=C\C/C=C\CC [PS(44:12)]	–	299.7 Å²	–
CCCCCCCCCCC=CCC=CCC=CCC=CCC(=O)OC[C@H](COP(=O)(O)OC[C@H](N)C(=O)O)OC(=O)CC=CCC=CCC=CCC=CCCCCCCCCCC [PS(46:8)]	–	313.2 Å²	–
OC[C@H]1OC(OC[C@H]2OC(O[C@]3(CO)O[C@H](CO)[C@@H](O)[C@@H]3O)[C@H](O)[C@@H](O)[C@@H]2O)[C@H](O)[C@@H](O)[C@H]1O (stereo partly specified) [Raffinose]	212.7 Å²	210.7 Å²	collision cross section (N2) ([2]; [M+Rb]+): 218.7 Å² and 229.7 Å²
CCCCCCCCCCCCC=CC[C@@H](O)[C@H](COP(=O)([O-])OCC[N+](C)(C)C)NC(=O)CCCCCCCCCCCCCCCCCCCCCCCCC [SM(44:1)]	–	315.1 Å²	–
CCCCCCCCCCCCC=CC[C@@H](O)[C@H](COP(=O)([O-])OCC[N+](C)(C)C)NC(=O)CC=CCC=CCCCCCCCCCCCCCCCCCCC [SM(44:3)]	–	312 Å²	–
CCCCCC[N+](CCCCCC)(CCCCCC)CCCCCC [TAA6]	–	–	collision cross section (N2) ([2]; [M]+): 213.5 Å²
CCCCCCCC[N+](CCCCCCCC)(CCCCCCCC)CCCCCCCC [TAA8]	–	–	collision cross section (N2) ([2]; [M]+): 256.6 Å²
CCCCCCCCCC[N+](CCCCCCCCCC)(CCCCCCCCCC)CCCCCCCCCC [TAA10]	–	–	collision cross section (N2) ([2]; [M]+): 293.5 Å²
CCCCCCCCCCCCCCCC[N+](CCCCCCCCCCCCCCCC)(CCCCCCCCCCCCCCCC)CCCCCCCCCCCCCCCC [TAA16]	–	–	collision cross section (N2) ([2]; [M]+): 361.5 Å²
CC(C)[C@H](N)C(=O)N[C@@H](Cc1ccccc1)C(=O)N[C@@H](C)C(=O)N[C@@H](CC(=O)O)C(=O)N[C@@H](Cc1ccc(O)cc1)C(=O)N[C@@H](CCC(=O)O)C(=O)N[C@@H](CCC(=O)O)C(=O)N[C@@H](Cc1ccc(O)cc1)C(=O)N[C@H](C(=O)N[C@@H](CCCCN)C(=O)O)C(C)C [VFADYEEYVK]	–	–	collision cross section (N2) ([2]; [M+H]+): 366.4 Å²
CCC(C)[C@H](NC(=O)[C@@H](N)C(C)C)C(=O)N[C@@H](Cc1ccccc1)C(=O)N[C@@H](CC(C)C)C(=O)N[C@@H](CCC(=O)O)C(=O)N[C@@H](CC(N)=O)C(=O)N[C@@H](Cc1ccc(O)cc1)C(=O)N[C@@H](CCCNC(=N)N)C(=O)O (stereo partly specified) [VIFLENYR]	–	–	collision cross section (N2) ([2]; [M+H]+): 318.3 Å²
CC(C)C[C@H](NC(=O)[C@H](C)NC(=O)[C@H](CO)NC(=O)[C@@H](N)C(C)C)C(=O)N[C@@H](Cc1ccc(O)cc1)C(=O)N[C@@H](CCCCN)C(=O)O [VSALYK]	–	–	collision cross section (N2) ([2]; [M+H]+): 261.8 Å² and 254 Å²
CC(C)C[C@H](NC(=O)[C@H](CO)NC(=O)[C@@H](N)C(C)C)C(=O)N[C@@H](C)C(=O)N[C@@H](CCC(=O)O)C(=O)N[C@@H](CCCCN)C(=O)O [VSLAEK]	–	–	collision cross section (N2) ([2]; [M+H]+): 249 Å²
